Experimental data as given in ChEMBL document CHEMBL1128646, “The effect of Pyrrolo[3,4-c]carbazole derivatives on spinal cord ChAT activity” (Bioorg Med Chem Lett, 1995).
Values belong to the molecule of their own block, whether it stands above or below them. Calls of active or inactive are those of the source. No cut-off for these calls is given here.

Experiments:
[1] = target: T1, Choline O-acetyltransferase (Rattus norvegicus) (UniProt P32738); assay: Compound was tested in vitro for choline acetyltransferase (ChAT) activity (maximal ChAT stimulation) in embryonic rat spinal cord cultures at a concentration of 0.300 uM; assay type: tissue-based
T1 sequence (whole entry): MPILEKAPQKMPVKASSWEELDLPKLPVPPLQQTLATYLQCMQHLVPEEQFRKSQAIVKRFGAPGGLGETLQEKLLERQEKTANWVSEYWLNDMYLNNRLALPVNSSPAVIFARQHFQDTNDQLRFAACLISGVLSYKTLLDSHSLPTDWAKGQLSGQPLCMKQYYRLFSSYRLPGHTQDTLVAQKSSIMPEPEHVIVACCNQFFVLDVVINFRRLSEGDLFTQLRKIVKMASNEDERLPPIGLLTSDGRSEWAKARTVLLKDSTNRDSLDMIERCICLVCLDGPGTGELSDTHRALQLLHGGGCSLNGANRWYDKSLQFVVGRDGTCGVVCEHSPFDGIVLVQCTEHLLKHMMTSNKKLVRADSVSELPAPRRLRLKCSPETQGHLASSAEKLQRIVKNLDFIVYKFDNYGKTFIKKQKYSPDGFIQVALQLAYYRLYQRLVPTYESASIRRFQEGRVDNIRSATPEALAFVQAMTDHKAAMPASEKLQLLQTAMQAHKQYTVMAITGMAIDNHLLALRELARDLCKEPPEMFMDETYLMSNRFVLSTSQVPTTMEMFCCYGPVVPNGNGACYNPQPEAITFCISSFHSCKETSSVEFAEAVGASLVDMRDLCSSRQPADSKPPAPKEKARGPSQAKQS

[2] = target: T1, Choline O-acetyltransferase (Rattus norvegicus); assay: Compound was tested in vitro for choline acetyltransferase (ChAT) activity (maximal ChAT stimulation) in embryonic rat spinal cord cultures at a concentration of 10 uM; inactive
[3] = target: T1, Choline O-acetyltransferase (Rattus norvegicus); assay: Compound was tested in vitro for choline acetyltransferase (ChAT) activity (maximal ChAT stimulation) in embryonic rat spinal cord cultures at a concentration of 10 uM; assay type: tissue-based
[4] = target: T1, Choline O-acetyltransferase (Rattus norvegicus); assay: Compound was tested in vitro for choline acetyltransferase (ChAT) activity (maximal ChAT stimulation) in embryonic rat spinal cord cultures at a concentration of 1 uM; assay type: tissue-based
[5] = target: T1, Choline O-acetyltransferase (Rattus norvegicus); assay: Compound was tested in vitro for choline acetyltransferase (ChAT) activity (maximal ChAT stimulation) in embryonic rat spinal cord cultures at a concentration of 10 uM; Inactive; assay type: tissue-based

SMILES: COC(=O)[C@]1(O)C[C@@H]2O[C@@]1(C)n1c3ccccc3c3c4c(c5c6ccccc6n2c5c31)C(=O)NC4
Control [1]: 186%

SMILES: Cn1c2ccccc2c2c3c(c(-c4ccccc4)cc21)CNC3=O
Control [3]: 159%

SMILES: O=C1NCc2c1c1c3ccccc3[nH]c1c1[nH]c3ccccc3c21
Control [4]: 162%

SMILES: CN1Cc2c(-c3ccccc3)cc3c(c2C1=O)c1ccccc1n3C
Control [5]: inactive

Now from value to molecule:

Control [2]: inactive
SMILES: CC(C)(C)OC(=O)/C=C/c1ccc2[nH]c3cc(-c4ccccc4)c4c(c3c2c1)C(=O)NC4

Control [3]: 167%
SMILES: O=C1NCc2c(-c3ccccc3)cc3[nH]c4ccccc4c3c21

Control [4]: 146%
SMILES: O=C1NCc2c(-c3ccccc3)cc3[nH]c4ccc(Br)cc4c3c21

Control [2]: inactive
SMILES: O=C1NCc2c(-c3ccccc3)cc3[nH]c4ccc(/C=C/c5ccccc5)cc4c3c21

Control [2]: inactive
SMILES: O=C1NCc2c1c(-c1ccccc1)cc1[nH]c3ccccc3c21
